{"source": "patent US8246966B2", "about": "“Trypanosome microsome system and uses thereof” (priority 2006, dated 2012)", "key": {"[1]": {"system": "T. brucei microsomes (TbRM)", "assay": "Post-translational import of VSG-11786 into TbRM with inhibitors (Example 4)", "type": "biochemical, Trypanosoma brucei", "settings": "10 μM", "experimental": "FIGS. 7A to 7C. […] VSG-11786 mRNA was translated in rabbit reticulocyte lysate in the absence or presence of T. brucei cytosol for 1 hour at 37° C., and then cycloheximide was added to stop protein synthesis. TbRM (1 equivalent) and MAL3-101 (10 μM), MAL3-51 (10 μM), or an equal volume of DMSO was added to the samples on ice, and the mixture was incubated at 37° C. for 1.5 hours for translocation of VSG-11786 into the microsomes. Reaction mixtures were treated with proteinase K (PK) for one hour on ice. Proteolysis was terminated with PMSF. Proteins were precipitated with ammonium sulfate, pelleted by centrifugation, resuspended in SDS-PAGE sample buffer, and resolved by Tris-Tricine SDS-PAGE. Gel images were obtained with a phosphorimager and analyzed with Quantity-One software. Reaction mixtures for odd numbered lanes contained TbRM, but not proteinase K; even numbered lanes contained TbRM and proteinase K. Brackets denote lanes that were compared to obtain percentage of VSG-11786 import values. FIG. 7B is a graphical representation of data from FIG. 7A. […] In FIG. 7C, the effect of MAL3-101 on T. brucei growth.\nFIGS. 8A to 8D. Effects of NFI028 and CAM741 on import of VSG-11786 into T. brucei microsomes. […] VSG-11786 mRNA was translated in rabbit reticulocyte lysate in the presence of T. brucei cytosol for one hour at 37° C., and then protein synthesis was stopped by the addition of cycloheximide. […] Reaction mixtures were treated with proteinase K (PK) on ice for one hour. Proteolysis was terminated with PMSF. Proteins were precipitated with ammonium sulfate, pelleted, resuspended in SDS-PAGE sample buffer, and resolved by Tris-Tricine SDS-PAGE. Images of radiolabeled proteins were obtained with a phosphorimager and quantitated with Quantity-One software. Samples depicted in odd numbered lanes contained TbRM, but were not treated proteinase K. Reaction mixtures shown in even numbered lanes contained TbRM and were treated with proteinase K. Brackets denote lanes that were compared to each other in order to obtain percentage of VSG-11786 import values. FIG. 8B is a graphical representation of data from FIG. 8A.\nFIGS. 9A to 9D. Effects of azide, AEE788, and valinomycin on VSG-11786 import into T. brucei microsomes. […] VSG-11786 mRNA was translated in rabbit reticulocyte lysate in the presence of T. brucei cytosol for one hour at 37° C. Cycloheximide was added to stop proteins synthesis. TbRM (1 equivalent) and sodium azide (8 μM), AEE788 (8 μM), an equal volume of microsome buffer (RMB) or DMSO was added to the samples on ice, and the mixtures were incubated at 37 C for 1.5 hours. Reaction mixtures were treated with proteinase K (PK) on ice for one hour. Proteolysis was terminated with PMSF. Proteins were precipitated with ammonium sulfate, pelleted, resuspended in SDS-PAGE sample buffer, and resolved by Tris-Tricine SDS-PAGE. Images of radiolabeled proteins were obtained with a phosphorimager and quantitated with Quantity-One software. Brackets show lanes that were compared to each other in order to obtain percentage of VSG-11786 imported into TbRM. Lanes 1, 3, 5, & 7 were treated with TbRM, but not proteinase K. Lanes 2, 4, 6, & 8 were treated with TbRM and proteinase K. FIG. 9B is a graphical representation of data from FIG. 9A. […] Reaction mixtures depicted in odd lanes contained TbRM, but were not treated with proteinase K; even lanes contained TbRM and were treated with proteinase K. FIG. 9D is a graphical representation of data from panel FIG. 9C."}, "[2]": {"system": "Bloodstream T. brucei CA427", "assay": "Bloodstream T. brucei cell culture drug susceptibility (Example 4)", "type": "cell-based, Trypanosoma brucei", "settings": "cultured bloodstream T. brucei", "experimental": "Cell Culture. Bloodstream T. brucei cell culture and drug susceptibility studies were performed as previously described. Bloodstream T. brucei CA427 were cultured in HMI-9 media (Hirumi and Hirumi, 1994, Parasitol Today; 10(2):80-4) to a density of 10^6 cells/ml. Cells were seeded (500 μl of 4×10^4 cells/ml) to a 24-well plate and exposed to MAL3-101, CAM741, and NFI028 at listed concentrations (see figure legends) or an equal volume of DMSO. Cells were incubated at 37° C. and counted after 24 and 48 hours, using a hemocytometer."}}, "data": [{"smiles": "CCCCCCN(C(=O)CCCCCN1C(=O)NC(c2ccc(-c3ccccc3)cc2)C(C(=O)OCc2ccccc2)=C1C)C(C(=O)NCCCC)c1ccc(OCC(=O)OC)c(C(=O)OC)c1", "note": "(stereo not shown) [MAL3-101]", "values": [{"measurement": "reduction of VSG-11786 import into TbRM compared to DMSO control", "setting": "[1]; absence of T. brucei cytosol", "value": 54, "unit": "%"}, {"measurement": "VSG-11786 imported into TbRM", "setting": "[1]; presence of T. brucei cytosol", "value": 90, "unit": "%"}, {"measurement": "concentration killing all parasites", "setting": "[2]", "value": 3, "unit": "µM"}, {"measurement": "IC50", "setting": "[2]; read-out: IG50, T. brucei growth", "value": 1500, "unit": "nM"}]}]}
